Measurements as given in patent US11440903B2, “Salt form and crystal form of compound as FGFR4 inhibitor and preparation method thereof” (GUANGDONG ZHONGSHENG PHARMACEUTICAL CO., LTD, priority 2017, dated 2022).

Assay: Stability of the crystal form on stirring as suspension in solvent (40° C., 2 days)
Assay type: physicochemical
Details: stirring in methanol at 40° C. for 2 days
Method in brief: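 Suspensions of compound in acetonitrile-water (1:1), ethyl acetate, methanol or ethanol stirred in the dark at 40° C. for 2 days, centrifuged, solids vacuum-dried at 30° C. overnight (room temperature for formula (II)). Some samples first dissolved under ultrasound and partly evaporated. Resulting crystal form identified by XRPD, with DSC and TGA.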

SMILES: C=CC(=O)N[C@H]1COC[C@H]1Nc1ncc(/C=C(\F)c2c(Cl)c(OC)cc(OC)c2Cl)cn1 [Crystal Form B]
- stability in the methanol solution: substantially high stability

SMILES: C=CC(=O)N[C@H]1COC[C@H]1Nc1ncc(/C=C(\F)c2c(Cl)c(OC)cc(OC)c2Cl)cn1.CS(=O)(=O)O [Crystal Form E]
- stability in the methanol solution: substantially high stability
